Laboratory results from EP0188781A1, “1-Oxa-1-dethia-cephalosporin compounds and antibacterial agent comprising the same” (Merck & Co., Inc., priority 1984, dated 1986).

Legend:
[1] = system: Pseudomonas aeruginosa MB3829; test: Minimum inhibitory concentration (MIC) in vitro, antibacterial spectrum; format: cell-based
Proteus mirabilis GN79 = test: as above; format: cell-based
Proteus vulgaris GN76 = test: as above; format: cell-based
Pseudomonas aeruginosa = test: Antibacterial activity in vitro, summary in words; format: cell-based; conditions: statement in words on Table 1
From the text: Besides, the compounds of Examples 1, 2, 4, 5 and 7 advantageously are also effective against Pseudomonas aeruginosa.

[2] = system: Streptococcus faecalis ATCC8043; test: Minimum inhibitory concentration (MIC) in vitro, antibacterial spectrum; format: cell-based
[3] = system: Staphylococcus aureus 209 P JC-1; test: as above; format: cell-based
[4] = system: Serratia marcescens No. 2; test: as above; format: cell-based
[5] = system: Escherichia coli NIHJ JC-2; test: as above; format: cell-based
[6] = Concentration in serum after subcutaneous administration to mice, bioassay with Escherichia coli; format: in vivo; conditions: mouse, sc, 25 mg/kg subcutaneously; for concentration at 0.5 h: 1/2 hour; for concentration at 0.25 h: 1/4 hour; for concentration at 5 min: 1/12 hour
From the text: For the serum which was separated from the blood samples, the concentration in the serum of the compound administered was bioassayed using Escherichia coli as assay microorganism.

Streptococcus faecalis = test: Antibacterial activity in vitro, summary in words; format: cell-based; conditions: statement in words on Table 1
[7] = system: Streptococcus faecalis W-74; test: Minimum inhibitory concentration (MIC) in vitro, antibacterial spectrum; format: cell-based
Escherichia coli GN206 = test: as above; format: cell-based
[8] = system: Streptococcus faecalis W-75; test: as above; format: cell-based
Proteus rettgeri GN624 = test: as above; format: cell-based
[9] = system: Pseudomonas aeruginosa MB3833; test: as above; format: cell-based
[10] = system: Streptococcus faecalis W-73; test: as above; format: cell-based
[11] = system: Staphylococcus aureus Smith; test: as above; format: cell-based
[12] = system: Pseudomonas aeruginosa E-2; test: as above; format: cell-based
[13] = system: Salmonella typhimurium LT-2; test: as above; format: cell-based

Row | Minimum inhibitory concentration (MIC) [1] | Minimum inhibitory concentration (MIC) (Proteus mirabilis GN79) | Minimum inhibitory concentration (MIC) (Proteus vulgaris GN76) | Minimum inhibitory concentration (MIC) [2] | Minimum inhibitory concentration (MIC) [3] | Minimum inhibitory concentration (MIC) [4] | Minimum inhibitory concentration (MIC) [5] | concentration at 0.5 h [6] [ng/mL] | concentration at 0.25 h [6] [ng/mL] | concentration at 5 min [6] [ng/mL] | concentration at 1 h [6] [ng/mL] | Minimum inhibitory concentration (MIC) [7] | Minimum inhibitory concentration (MIC) (Escherichia coli GN206) | Minimum inhibitory concentration (MIC) [8] | Minimum inhibitory concentration (MIC) (Proteus rettgeri GN624) | Minimum inhibitory concentration (MIC) [9] | Minimum inhibitory concentration (MIC) [10] | Minimum inhibitory concentration (MIC) [11] | Structure (SMILES) | effective against Pseudomonas aeruginosa (Pseudomonas aeruginosa) | effective against Streptococcus faecalis (Streptococcus faecalis) | further results
1 | 1.56 | 0.78 | 0.025 | 50 | 1.56 | 0.39 | 0.10 | 25000 | 44000 | 24000 | 10000 | 6.25 | 1.56 | 3.13 | 0.78 | 3.13 | 25 | 3.13 | CCN1CCN(C(=O)NC(C(=O)N[C@@H]2C(=O)N3C(C(=O)O)=C(CSc4nc(=O)c(O)nn4C)[C@H](C)O[C@H]23)c2csc(N)n2)C(=O)C1=O (single isomer, unassigned) [Compound No. 5] | effective | effective | Minimum inhibitory concentration (MIC) [12]: 3.13; Minimum inhibitory concentration (MIC) [13]: 0.10
2 | 6.25 | 0.025 | 0.10 | 6.25 | 0.78 | 0.39 | 0.10 | 41000 | 47700 | 27000 | 24800 | 6.25 | 0.78 | 0.20 | 0.78 | 6.25 | 50 | 1.56 | CO/N=C(\C(=O)N[C@@H]1C(=O)N2C(C(=O)O)=C(CSc3nc(=O)c(O)nn3C)[C@H](C)O[C@H]12)c1csc(N)n1 [Compound No. 1, (6R,7R)-7[(Z)-2-(2-aminothiazol-4-yl)-2-(methoxyimino)acetamido]-(2S)-2-methyl-3-(2,5-dihydro-6-hydroxy-2-methyl-5-oxo-1,2,4-triazin-3-yl)thiomethyl-l-oxa-l-dethia-ceph-3-em-4-carboxylic acid] | effective | effective | Minimum inhibitory concentration (MIC) [12]: 12.5; Minimum inhibitory concentration (MIC) [13]: 0.05
